Experimental data reported in article PMC7311950, “Potent Tetrahydroquinolone Eliminates Apicomplexan Parasites” (Frontiers in Cellular and Infection Microbiology, 2020).
In brackets after ≈: the same amount, converted by molar mass. Read-outs that look alike come from different tables or passages of the source.

What was measured:
[1] = Kinetic solubility in PBS pH 7.4 (Chem Partners)
Method: (§1) The effects of changing R1 as 7-Et, 7-Me, 6-CF3, or 6-Me on activity against RH strain tachyzoites, kinetic solubility, and metabolic stability were compared. Kinetic solubility and metabolic stability in human or murine liver microsomes were measured. The hERG (human Ether-à-go-go-Related) liability was also determined. The hERG gene (KCNH2) encodes a protein Kv11.1, the alpha subunit of a potassium ion channel. This channel conducts the rapid component of the delayed rectifier potassium current, IKr, which is critical for repolarization of cardiac action potentials. A reduction in hERG currents from adverse drug effects can lead to long QT interval syndromes. These syndromes are characterized by action potential prolongation, lengthening of the QT interval on surface EKG, and an increased risk for “torsade de pointes” arrhythmias and sudden death. The MDCK-MDR1 Permeability Assay was also performed. MDCK-MDR1 refers to the ability of a compound to permeate across membranes of MDCK-MDR1 (Madin Darby canine kidney [MDCK] cells with the MDR1 gene [ABCB1], the gene encoding for the efflux protein, P-glycoprotein (P-gp)) in vitro. Assessing transport in both directions (apical to basolateral and basolateral to apical) across the cell monolayers enables an efflux ratio to be determined. […] This provides a prediction of blood brain barrier (BBB) penetration potential/permeability and efflux ratio. Effect in CACO-2 (Colon Adenocarcinoma cells) as a permeability assay and on cytochrome P450 (CYP 450) were also determined. CYP enzymes catalyze oxidative biotransformation (phase 1 metabolism) of most drugs. CYP enzymes, bind to membranes in a cell (cyto) and contain a heme pigment (chrome and P) that absorbs light at a wavelength of 450 nm when exposed to carbon monoxide. Metabolism of a drug by CYP enzymes is a major source of variability in drug effect. These were measured by Chem Partners. The relative effect on HFF and parasite enzymes also were compared.

[2] = Metabolic stability in human liver microsomes; conditions: for Human liver microsomes: stability, Figure 2E
Method: as §1
(§2) In vitro absorption, distribution, metabolism, excretion, and toxicity (ADMET) analyses of the THQ compounds were outsourced to ChemPartner Shanghai Ltd. ELQ-271 (synthesized in-house) was tested as a comparison.

[3] = Metabolic stability in mouse liver microsomes; conditions: for half-life: mouse, liver microsomes
Method: as §1, §2

[4] = tested on: T. gondii mitochondrial membrane potential; assay: T. gondii mitochondrial membrane potential, safranine method; type: cell-based, Toxoplasma gondii; conditions: permeabilized T. gondii tachyzoites, safranin O
Method: The mitochondrial membrane potential was measured by the safranine method according to Vercesi et al. ([1998]). Freshly egressed T. gondii tachyzoites were filtered and washed twice with intracellular buffer (125 mM sucrose, 65 mM KCl, 10 mM HEPES-KOH buffer, pH 7.2, 1 mM MgCl2, and 2.5 mM potassium phosphate). After washing, the parasites were resuspended in the same buffer at 10^9/mL. An aliquot of 50 μL of this suspension was added to a cuvette containing Safranin O, 2.5 μM and Succinate 1 mM in final volume of 2 mL of the intracellular buffer. The fluorescence was measured with a Hitachi 7000 spectrofluorometer with settings Ex. 495/Em. 586. Once the baseline fluorescence was stable, 30 μM digitonin was added to permeabilize the parasites. Eighty five seconds after permeabilization, the THQ derivatives, dissolved in DMSO, were added. Five micromolars of FCCP (Carbonyl cyanide-4-(trifluoromethoxy) phenylhydrazone) was used as an uncoupler reference for calculations and its effect was considered 100%. We used similar conditions for measuring the mitochondrial membrane potential of mammalian cells with the following changes: the mammalian cells were resuspended at 10^8/mL. We also used 50 μL of this suspension for each experiment in a total volume of 2 mL. The substrate used for mammalian cells was 5 mM glutamate and 5 mM malate. A higher concentration of digitonin (50 μM) was used to permeabilize the mammalian cells. The compounds were added at ~400 s after permeabilization. Each experiment was repeated at least three times in duplicates. Statistical analysis, unpaired student t-test, was performed using GraphPad Prism 8.0 (GraphPad Software, Inc., San Diego, CA).
Mitochondrial membrane potential measurements were performed with permeabilized T. gondii tachyzoites in suspension using safranin O, which loads into polarized membranes [see section Materials and Methods in the Supplemental Materials (Vercesi et al., [1998])]. T. gondii tachyzoites were permeabilized with digitonin to allow the mitochondrial substrate succinate to cross the membrane and energize the mitochondrion. The fluorescence of safranin O, which loads into energized mitochondria was used to measure the membrane potential. The energized state of the mitochondrion is observed by a decrease in fluorescence (Figures 3A,C,E). Trifluoromethoxy carbonylcyanide phenylhydrazone (FCCP) was used to depolarize the membrane, which is observed as an increase in fluorescence (Figures 3A,B). JAG21 depolarized the membrane potential even at concentrations as low as 2 nM (Figures 3C,D). JAG21 and Atovaquone had similar effects on the mitochondrial membrane potential (Figure 3D). […]

[5] = PBS, pH 7.4, aqueous solubility (PBS, pH 7.4), amorphous compounds
[6] = T1/2 (M), predicted half-life in mouse liver microsomes, Figure 1A, min in Figure 2E for the same values

Row | SMILES | solubility [1, 5] | solubility ([1]; pH 7.4) | half-life ([2]; human, liver microsomes) | Human liver microsomes [2] | Mouse liver microsomes [3] | half-life [3, 6] | concentration that depolarized the mitochondrial membrane potential [4] | solubility ([1]; PBS, pH 7.4, solubility of the microcrystalline form, microcrystalline form) | remaining in human liver microsomes ([2]; after 45 min) | half-life ([3]; half-life in mouse liver microsomes) | Mouse liver microsomes ([3]; stability, Figure 2E)
1 | Cc1[nH]c2c(c(=O)c1-c1ccc(Oc3ccc(Cl)cc3)cc1)CCCC2 [JAG50] | 16 µM (≈ 5.85 µg/mL) | 16.4 µM (≈ 6 µg/mL) | 1.65 h | 99.04 min | 68.55 min | 1.14 h | ≥ 200 nM |  |  |  | 
2 | Cc1[nH]c2c(c(=O)c1-c1ccc(Oc3ccc(OC(F)(F)F)cc3)cc1)CCCC2 [JAG21, 2-Methyl-3-(4-(4-(Trifluoromethoxy)Phenoxy)Phenyl)-5,6,7,8-Tetrahydroquinolin-4-One] | 7 µM (≈ 2.91 µg/mL) | 7.07 µM (≈ 2.94 µg/mL) |  | ∞ |  | 1.68 h | ≤ 2 nM | 3.5 µM (≈ 1.45 µg/mL) | > 99% | 1.68 h | 101.09 min
